# Molecular target: T1, Aromatase (Homo sapiens, UniProt P11511)
# T1 sequence (P11511 whole entry): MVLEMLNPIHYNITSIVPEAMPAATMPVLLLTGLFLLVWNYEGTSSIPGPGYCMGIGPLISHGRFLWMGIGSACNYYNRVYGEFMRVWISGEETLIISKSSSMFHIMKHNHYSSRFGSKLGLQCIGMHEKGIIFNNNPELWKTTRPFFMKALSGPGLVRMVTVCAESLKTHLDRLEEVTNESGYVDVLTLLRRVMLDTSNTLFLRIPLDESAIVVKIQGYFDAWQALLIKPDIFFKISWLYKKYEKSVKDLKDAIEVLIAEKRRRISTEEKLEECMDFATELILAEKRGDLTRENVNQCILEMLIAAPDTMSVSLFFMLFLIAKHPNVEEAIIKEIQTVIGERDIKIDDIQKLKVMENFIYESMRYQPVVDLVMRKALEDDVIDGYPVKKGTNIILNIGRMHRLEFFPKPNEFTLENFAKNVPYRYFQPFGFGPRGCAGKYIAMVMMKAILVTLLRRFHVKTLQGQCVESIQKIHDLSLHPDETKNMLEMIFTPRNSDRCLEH
row,SMILES,Ki
1,C[C@]12CC[C@@H]3c4ccc(O)cc4[C@@H](CCCc4ccccc4)C[C@H]3[C@@H]1CC[C@@H]2O,100 nM
2,CO[C@H]1C[C@@H]2[C@H](CC[C@]3(C)C(=O)CC[C@@H]23)[C@@]2(C)CCCC=C12,12 nM
3,C[C@]12C=CC(=O)C=C1C(CCc1ccccc1)=C[C@@H]1[C@@H]2CC[C@]2(C)C(=O)CC[C@@H]12,8.5 nM
4,C[C@]12CC[C@@H]3c4ccc(O)cc4[C@H](CCCc4ccccc4)C[C@H]3[C@@H]1CCC2=O,100 nM
5,C[C@@H]1C[C@@H]2[C@H](CC[C@]3(C)[C@@H](O)CC[C@@H]23)c2ccc(O)cc21,100 nM
6,C[C@]12CCC(=O)C=C1[C@@H](OCc1ccccc1)C[C@@H]1[C@@H]2CC[C@]2(C)C(=O)CC[C@@H]12,7 nM
7,C[C@H]1C[C@@H]2[C@H](CC[C@]3(C)[C@@H](O)CC[C@@H]23)c2ccc(O)cc21,100 nM
8,C[C@]12CC[C@@H]3c4cc(Br)c(O)cc4CC[C@H]3[C@@H]1CC[C@@H]2O,100 nM
9,CCCCC[C@H]1C[C@@H]2[C@H](CC[C@]3(C)C(=O)CC[C@@H]23)[C@@]2(C)CCC(=O)C=C12,9.3 nM
10,CCCCCCCC1=C[C@@H]2[C@H](CC[C@]3(C)C(=O)CC[C@@H]23)[C@@]2(C)C=CC(=O)C=C12,2.5 nM
11,C[C@]12CC[C@H]3[C@@H](C(=O)[C@H]4O[C@]45C(=O)CCC[C@]35C)[C@@H]1CCC2=O,5000 nM
12,CCCCC[C@@H]1C[C@@H]2[C@H](CC[C@]3(C)C(=O)CC[C@@H]23)[C@@]2(C)CCC(=O)C=C12,2.8 nM
13,CC(=O)O[C@@H]1C[C@@H]2[C@H](CC[C@]3(C)C(=O)CC[C@@H]23)[C@@]2(C)CCCC=C12,12 nM
14,C[C@]12CC[C@@H]3c4ccc(O)cc4CC[C@H]3[C@@H]1CCC2=O [ESTRONE],2500 nM
15,C[C@]12CC[C@H]3[C@@H](C(=O)[C@H]4O[C@]45C(=O)CCC[C@]35C=O)[C@@H]1CCC2=O,5000 nM
16,CCCCCCC1=C[C@@H]2[C@H](CC[C@]3(C)C(=O)CC[C@@H]23)[C@@]2(C)CCC(=O)C=C12,17 nM
17,C[C@]12CCC(=O)C=C1C(CCc1ccccc1)=C[C@@H]1[C@@H]2CC[C@]2(C)C(=O)CC[C@@H]12,10 nM
18,Cc1cc2c(cc1O)CC[C@@H]1[C@@H]2CC[C@]2(C)[C@@H](O)CC[C@@H]12,100 nM
19,COC1=C[C@@]2(C)C(=CC1=O)CC[C@@H]1[C@@H]2CC[C@]2(C)C(=O)CC[C@@H]12,95 nM
20,C[C@]12CCCC(OC(=O)c3ccccc3)=C1CC[C@@H]1[C@@H]2CC[C@]2(C)C(=O)CC[C@@H]12,70 nM
21,CC1(C)C[C@@]2(C)C(=CC1=O)[C@@H](Br)C[C@@H]1[C@@H]2CC[C@]2(C)C(=O)CC[C@@H]12,14 nM
22,CCCC1=C[C@@H]2[C@H](CC[C@]3(C)C(=O)CC[C@@H]23)[C@@]2(C)CCC(=O)C=C12,17 nM
23,CCCCCC(=O)O[C@H]1C[C@@H]2[C@H](CC[C@]3(C)C(=O)CC[C@@H]23)[C@@]2(C)CCC(=O)C=C12,7 nM
24,CCCC1=C[C@@H]2[C@H](CC[C@]3(C)C(=O)CC[C@@H]23)[C@@]2(C)C=CC(=O)C=C12,2.5 nM

row,SMILES,Ki
1,C[C@]12CC[C@@H]3c4cc(Cl)c(O)cc4CC[C@H]3[C@@H]1CCC2=O,100 nM
2,C[C@]12CCCC(=O)C1=CC[C@@H]1[C@@H]2CC[C@]2(C)C(=O)CC[C@@H]12,120 nM
3,C[C@]12CC[C@@H]3c4ccc(O)cc4[C@@H](Cc4ccccc4)C[C@H]3[C@@H]1CC[C@@H]2O,100 nM
4,C[C@]12C=CC(=O)C=C1C=C[C@@H]1[C@@H]2CC[C@]2(C)C(=O)CC[C@@H]12,2.5 nM
5,CO[C@@H]1C[C@@H]2[C@H](CC[C@]3(C)C(=O)CC[C@@H]23)[C@@]2(C)CCCC=C12,12 nM
6,CC[C@H]1C[C@@H]2[C@H](CC[C@]3(C)C(=O)CC[C@@H]23)[C@@]2(C)CCCC=C12,12 nM
7,C[C@]12CC[C@H]3[C@@H](CC=C4C=CCC[C@@]43C)[C@@H]1CC[C@@H]2O,58 nM
8,C[C@]12CC[C@H]3[C@@H](CC[C@]45O[C@H]4C(=O)CC[C@]35C)[C@@H]1CCC2=O,5000 nM
9,C[C@]12CC[C@@H]3c4ccc(O)cc4[C@H](CCCc4ccccc4)C[C@H]3[C@@H]1CC[C@@H]2O,100 nM
10,CCCCCCC1=C[C@@]2(C)C(=C(O)C1=O)CC[C@@H]1[C@@H]2CC[C@]2(C)C(=O)CC[C@@H]12,31 nM
11,CCCCCC1=C[C@@H]2[C@H](CC[C@]3(C)C(=O)CC[C@@H]23)[C@@]2(C)C=CC(=O)C=C12,2.5 nM
12,C[C@]12CCC(=O)C=C1C(Cc1ccccc1)=C[C@@H]1[C@@H]2CC[C@]2(C)C(=O)CC[C@@H]12,9 nM
13,CCCCC1=C[C@@H]2[C@H](CC[C@]3(C)C(=O)CC[C@@H]23)[C@@]2(C)CCC(=O)C=C12,17 nM
14,CCCCC1=C[C@@H]2[C@H](CC[C@]3(C)C(=O)CC[C@@H]23)[C@@]2(C)C=CC(=O)C=C12,2.5 nM
15,C[C@]12CC[C@@H]3c4cc(Br)c(O)cc4CC[C@H]3[C@@H]1CCC2=O,100 nM
16,C[C@]12CCC(=O)C=C1[C@@H](c1ccc(OS(N)(=O)=O)cc1)C[C@@H]1[C@@H]2CC[C@]2(C)C(=O)CC[C@@H]12,39 nM
17,C[C@]12CC[C@@H]3c4ccc(O)cc4[C@@H](CCCc4ccccc4)C[C@H]3[C@@H]1CCC2=O,100 nM
18,CC(=O)OC1=C2CC[C@@H]3[C@H](CC[C@]4(C)C(=O)CC[C@@H]34)[C@@]2(C)CCC1,60 nM
19,C[C@]12CC[C@@H]3c4ccc(O)c(NC(=O)c5ccncc5)c4CC[C@H]3[C@@H]1CCC2=O,1530 nM
20,CCC1=C[C@@H]2[C@H](CC[C@]3(C)C(=O)CC[C@@H]23)[C@@]2(C)C=CC(=O)C=C12,2.5 nM
21,C[C@]12CC[C@H]3[C@@H](CC[C@]45O[C@H]4C(=O)CC[C@]35CO)[C@@H]1CCC2=O,5000 nM
22,C[C@]12CC[C@@H]3c4cc(Cl)c(O)cc4CC[C@H]3[C@@H]1CC[C@@H]2O,100 nM
23,CCCCCC1=C[C@@H]2[C@H](CC[C@]3(C)C(=O)CC[C@@H]23)[C@@]2(C)CCC(=O)C=C12,17 nM
24,C[C@]12CCC(=O)C=C1[C@H](CCCCc1ccccc1)C[C@@H]1[C@@H]2CC[C@]2(C)C(=O)CC[C@@H]12,16 nM

row,SMILES,Ki
1,C[C@]12CC[C@@H]3c4ccc(O)cc4[C@H](Cc4ccccc4)C[C@H]3[C@@H]1CC[C@@H]2O,100 nM
2,CCCCCCCC[C@H]1C[C@@H]2[C@H](CC[C@]3(C)C(=O)CC[C@@H]23)[C@@]2(C)CCC(=O)C=C12,9.3 nM
3,C[C@]12CC[C@H]3[C@@H](CC(=O)[C@]45O[C@H]4C(=O)CC[C@]35C=O)[C@@H]1CCC2=O,5000 nM
4,Cc1cc2c(cc1O)CC[C@@H]1[C@@H]2CC[C@]2(C)C(=O)CC[C@@H]12,100 nM
5,C[C@@H]1C[C@@H]2[C@H](CC[C@]3(C)C(=O)CC[C@@H]23)[C@@]2(C)CCCC=C12,5.3 nM
6,C[C@]12CCC=CC1=CC[C@@H]1[C@@H]2CC[C@]2(C)C(=O)CC[C@@H]12,58 nM
7,C[C@]12CCC(=O)C=C1[C@@H](CCc1ccccc1)C[C@@H]1[C@@H]2CC[C@]2(C)C(=O)CC[C@@H]12,16 nM
8,C[C@]12CC[C@H]3[C@@H](CC=C4CCCC[C@@]43C)[C@@H]1CC[C@@H]2O,58 nM
9,CC(=O)O[C@H]1C[C@@H]2[C@H](CC[C@]3(C)C(=O)CC[C@@H]23)[C@@]2(C)CCCC=C12,12 nM
10,C[C@]12CC[C@H]3[C@@H](CC(=O)[C@]45O[C@H]4C(=O)CC[C@]35C)[C@@H]1CCC2=O,5000 nM
11,CCC1=C[C@@H]2[C@H](CC[C@]3(C)C(=O)CC[C@@H]23)[C@@]2(C)CCC(=O)C=C12,17 nM
12,CCCCCC[C@@H]1C[C@@H]2[C@H](CC[C@]3(C)C(=O)CC[C@@H]23)[C@@]2(C)CCC(=O)C=C12,2.8 nM
13,C[C@]12CC[C@H]3[C@@H](CC[C@]45O[C@H]4C(=O)CC[C@]35C=O)[C@@H]1CCC2=O,5000 nM
14,CCCCCC[C@H]1C[C@@H]2[C@H](CC[C@]3(C)C(=O)CC[C@@H]23)[C@@]2(C)CCC(=O)C=C12,9.3 nM
15,C[C@]12CC[C@@H]3c4cc(NC(=O)c5ccncc5)c(O)cc4CC[C@H]3[C@@H]1CCC2=O,2100 nM
16,C[C@]12CC[C@@H]3c4cc(F)c(O)cc4CC[C@H]3[C@@H]1CC[C@@H]2O,100 nM
17,C[C@]12CCC(=O)C=C1[C@@H](c1ccc(O)cc1)C[C@@H]1[C@@H]2CC[C@]2(C)C(=O)CC[C@@H]12,27 nM
18,C[C@]12CC[C@@H]3c4cc(F)c(O)cc4CC[C@H]3[C@@H]1CCC2=O,100 nM
19,C[C@]12C=CC(=O)C=C1C(c1ccc(O)cc1)=C[C@@H]1[C@@H]2CC[C@]2(C)C(=O)CC[C@@H]12,75 nM
20,C[C@]12CCC(=O)C=C1C(c1ccc(OS(N)(=O)=O)cc1)=C[C@@H]1[C@@H]2CC[C@]2(C)C(=O)CC[C@@H]12,30 nM
21,C[C@H]1C[C@@H]2[C@H](CC[C@]3(C)C(=O)CC[C@@H]23)[C@@]2(C)CCCC=C12,3.1 nM
22,C[C@]12CCC(=O)C=C1CC[C@@H]1[C@@H]2CC[C@]2(C)C(=O)CC[C@@H]12 [ANDROSTENEDIONE],35 nM
23,CCCCCCCC1=C[C@@H]2[C@H](CC[C@]3(C)C(=O)CC[C@@H]23)[C@@]2(C)CCC(=O)C=C12,17 nM
24,CCCCCCC1=C[C@@H]2[C@H](CC[C@]3(C)C(=O)CC[C@@H]23)[C@@]2(C)C=CC(=O)C=C12,2.5 nM
